Measured values from patent publication US6737383B1, “Herbicidal oxadiazolidines” (priority 1999, dated 2004).

Experiments:
bedstraw = experiment: Test B pre/postemergence bedstraw; assay type: in vivo, Galium aparine
In short: (§1)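 Test chemicals in a non-phytotoxic solvent mixture with surfactant were sprayed preemergence onto planted seeds and postemergence onto plants 2 to 18 cm tall (1- to 4-leaf stage). After twelve to sixteen days in a greenhouse, injury was visually rated against untreated controls from 0 (no effect) to 10 (complete control).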

blackgrass = experiment: Test B pre/postemergence blackgrass; assay type: in vivo, Alopecurus myosuroides
In short: as §1

surinam grass = experiment: Test B pre/postemergence surinam grass; assay type: in vivo, Brachiaria decumbens
In short: as §1

cocklebur = experiment: Test B pre/postemergence cocklebur; assay type: in vivo, Xanthium strumarium
In short: as §1

corn = experiment: Test B pre/postemergence corn; assay type: in vivo, Zea mays
In short: as §1

crabgrass = experiment: Test B pre/postemergence crabgrass; assay type: in vivo, Digitaria sanguinalis
In short: as §1

giant foxtail = experiment: Test B pre/postemergence giant foxtail; assay type: in vivo, Setaria faberii
In short: as §1

morningglory = experiment: Test B pre/postemergence morningglory; assay type: in vivo, Ipomoea hederacea
In short: as §1

pigweed = experiment: Test B pre/postemergence pigweed; assay type: in vivo, Amaranthus retroflexus
In short: as §1

soybean = experiment: Test B pre/postemergence soybean; assay type: in vivo, Glycine max
In short: as §1

sugar beet = experiment: Test B pre/postemergence sugar beet; assay type: in vivo, Beta vulgaris
In short: as §1

wild oat = experiment: Test B pre/postemergence wild oat; assay type: in vivo, Avena fatua
In short: as §1

purple nutsedge = experiment: Test B pre/postemergence purple nutsedge; assay type: in vivo, Cyperus rotundus
In short: as §1

rice = experiment: Test B flood test rice; assay type: in vivo, Oryza sativa
In short: (§2)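 Plants were grown to the 2-leaf stage before treatment with test chemical, then held in a greenhouse for twelve to sixteen days. Injury was visually rated against untreated controls on a 0–10 scale, where 0 is no effect and 10 is complete control.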

smallflower flatsedge = experiment: Test B flood test smallflower flatsedge; assay type: in vivo, Cyperus difformis
In short: as §2

duck salad = experiment: Test B flood test duck salad; assay type: in vivo, Heteranthera limosa
In short: as §2

[1] = Postemergence, Rate 62 g/ha, scale 0 to 10, 0 is no effect, 10 is complete control
[2] = Postemergence, Rate 250 g/ha, scale 0 to 10, 0 no effect, 10 complete control
[3] = Preemergence, Rate 62 g/ha, scale 0 to 10 (0 no effect, 10 complete control)
[4] = Preemergence, Rate 125 g/ha, scale 0 to 10 (0 no effect, 10 complete control)
[5] = Preemergence, Rate 250 g/ha, scale of 0 to 10 where 0 is no effect and 10 is complete control
[6] = Preemergence, Rate 500 g/ha, scale 0 (no effect) to 10 (complete control)
[7] = Rate 125 g/ha, Postemergence, scale 0 to 10, 0 no effect, 10 complete control
[8] = Rate 500 g/ha, Postemergence, scale 0 to 10, 0 no effect, 10 complete control
[9] = Rate 125 g/ha, Postemergence section (flood test species), scale 0 to 10, 0 no effect, 10 complete control
[10] = Rate 500 g/ha, listed under Postemergence (flood test species), scale 0 to 10, 0 no effect, 10 complete control
[11] = flood test, listed under Postemergence, Rate 250 g/ha, scale 0 to 10, 0 no effect, 10 complete control

## CC(C)N(C(=O)n1oc(=O)n(Cc2ccccc2)c1=O)c1ccc(F)cc1F [Compound 79]
bedstraw; [1]
  Bedstraw plant response rating: 3
bedstraw; [2]
  Bedstraw plant response rating: 7
bedstraw; [3]
  Bedstraw plant response rating: 0
bedstraw; [4]
  Plant response rating, Bedstraw: 0
bedstraw; [5]
  Plant response rating, Bedstraw: 0
bedstraw; [6]
  Bedstraw plant response rating: 0
bedstraw; [7]
  Bedstraw plant response rating: 3
bedstraw; [8]
  Bedstraw plant response rating: 8
blackgrass; [1]
  Blackgrass plant response rating: 0
blackgrass; [2]
  Blackgrass plant response rating: 3
blackgrass; [3]
  Blackgrass plant response rating: 0
blackgrass; [4]
  Plant response rating, Blackgrass: 2
blackgrass; [5]
  Plant response rating, Blackgrass: 6
blackgrass; [6]
  Blackgrass plant response rating: 6
blackgrass; [7]
  Blackgrass plant response rating: 0
blackgrass; [8]
  Blackgrass plant response rating: 3
Surinam grass; [1]
  B. signalgrass plant response rating: 0
Surinam grass; [2]
  B. signalgrass plant response rating: 0
Surinam grass; [3]
  B. signalgrass plant response rating: 2
Surinam grass; [4]
  Plant response rating, B. signalgrass: 0
Surinam grass; [5]
  Plant response rating, B. signalgrass: 3
Surinam grass; [6]
  B. signalgrass plant response rating: 5
Surinam grass; [7]
  B. signalgrass plant response rating: 0
Surinam grass; Rate 500 g/ha, Postemergence, scale of 0 to 10 where 0 is no effect and 10 is complete control
  B. signalgrass plant response rating: 0
cocklebur; [1]
  Cocklebur plant response rating: 0
cocklebur; [2]
  Cocklebur plant response rating: 2
cocklebur; [3]
  Cocklebur plant response rating: 0
cocklebur; [4]
  Plant response rating, Cocklebur: 0
cocklebur; [5]
  Plant response rating, Cocklebur: 0
cocklebur; [6]
  Cocklebur plant response rating: 0
cocklebur; [7]
  Cocklebur plant response rating: 0
cocklebur; [8]
  Cocklebur plant response rating: 2
corn; [1]
  Corn plant response rating: 0
corn; [2]
  Corn plant response rating: 0
corn; [3]
  Corn plant response rating: 0
corn; [4]
  Plant response rating, Corn: 0
corn; [5]
  Plant response rating, Corn: 0
corn; [6]
  Corn plant response rating: 0
corn; [7]
  Corn plant response rating: 0
corn; [8]
  Corn plant response rating: 0
crabgrass; [1]
  Crabgrass plant response rating: 3
crabgrass; [2]
  Crabgrass plant response rating: 4
crabgrass; [3]
  Crabgrass plant response rating: 2
crabgrass; [4]
  Plant response rating, Crabgrass: 7
crabgrass; [5]
  Plant response rating, Crabgrass: 9
crabgrass; [6]
  Crabgrass plant response rating: 10
crabgrass; [7]
  Crabgrass plant response rating: 4
crabgrass; [8]
  Crabgrass plant response rating: 8
Giant foxtail; [1]
  Giant foxtail plant response rating: 0
Giant foxtail; [2]
  Giant foxtail plant response rating: 3
Giant foxtail; [3]
  Giant foxtail plant response rating: 4
Giant foxtail; [4]
  Plant response rating, Giant foxtail: 8
Giant foxtail; [5]
  Plant response rating, Giant foxtail: 9
Giant foxtail; [6]
  Giant foxtail plant response rating: 9
Giant foxtail; [7]
  Giant foxtail plant response rating: 2
Giant foxtail; [8]
  Giant foxtail plant response rating: 4
morningglory; [1]
  Morningglory plant response rating: 5
morningglory; [2]
  Morningglory plant response rating: 7
morningglory; [3]
  Morningglory plant response rating: 0
morningglory; [4]
  Plant response rating, Morningglory: 0
morningglory; [5]
  Plant response rating, Morningglory: 0
morningglory; [6]
  Morningglory plant response rating: 0
morningglory; [7]
  Morningglory plant response rating: 5
morningglory; [8]
  Morningglory plant response rating: 8
pigweed; [1]
  Redroot pigweed plant response rating: 0
pigweed; [2]
  Redroot pigweed plant response rating: 3
pigweed; [3]
  Redroot pigweed plant response rating: 0
pigweed; [4]
  Plant response rating, Redroot pigweed: 4
pigweed; [5]
  Plant response rating, Redroot pigweed: 7
pigweed; [6]
  Redroot pigweed plant response rating: 10
pigweed; [7]
  Redroot pigweed plant response rating: 0
pigweed; [8]
  Redroot pigweed plant response rating: 4
soybean; [1]
  Soybean plant response rating: 0
soybean; [2]
  Soybean plant response rating: 1
soybean; [3]
  Soybean plant response rating: 0
soybean; [4]
  Plant response rating, Soybean: 0
soybean; [5]
  Plant response rating, Soybean: 0
soybean; [6]
  Soybean plant response rating: 0
soybean; [7]
  Soybean plant response rating: 1
soybean; [8]
  Soybean plant response rating: 2
Sugar beet; [1]
  Sugarbeets plant response rating: 3
Sugar beet; [2]
  Sugarbeets plant response rating: 4
Sugar beet; [3]
  Sugarbeets plant response rating: 0
Sugar beet; [4]
  Plant response rating, Sugarbeets: 1
Sugar beet; [5]
  Plant response rating, Sugarbeets: 1
Sugar beet; [6]
  Sugarbeets plant response rating: 2
Sugar beet; [8]
  Sugarbeets plant response rating: 6
Wild oat; [1]
  Wild oats plant response rating: 0
Wild oat; [2]
  Wild oats plant response rating: 0
Wild oat; [3]
  Wild oats plant response rating: 0
Wild oat; [4]
  Plant response rating, Wild oats: 0
Wild oat; [5]
  Plant response rating, Wild oats: 3
Wild oat; [6]
  Wild oats plant response rating: 4
Wild oat; [7]
  Wild oats plant response rating: 0
Wild oat; [8]
  Wild oats plant response rating: 0
Purple nutsedge; [1]
  Nutsedge plant response rating: 0
Purple nutsedge; [2]
  Nutsedge plant response rating: 0
Purple nutsedge; [3]
  Nutsedge plant response rating: 0
Purple nutsedge; [4]
  Plant response rating, Nutsedge: 0
Purple nutsedge; [5]
  Plant response rating, Nutsedge: 0
Purple nutsedge; [6]
  Nutsedge plant response rating: 0
Purple nutsedge; [7]
  Nutsedge plant response rating: 0
Purple nutsedge; [8]
  Nutsedge plant response rating: 0
rice; [1]
  Rice plant response rating: 0
rice; [9]
  Rice plant response rating: 0
rice; [10]
  Rice plant response rating: 3
rice; [11]
  Rice plant response rating: 0
Smallflower flatsedge; [1]
  S. Flatsedge plant response rating: 0
Smallflower flatsedge; [9]
  S. Flatsedge plant response rating: 0
Smallflower flatsedge; [10]
  S. Flatsedge plant response rating: 10
Smallflower flatsedge; [11]
  S. Flatsedge plant response rating: 4
Duck salad; [1]
  Ducksalad plant response rating: 0
Duck salad; [9]
  Ducksalad plant response rating: 0
Duck salad; [10]
  Ducksalad plant response rating: 3
Duck salad; [11]
  Ducksalad plant response rating: 0
